Laboratory results: PMC6283615, “Anilinoquinoline based inhibitors of trypanosomatid proliferation” (PLoS Neglected Tropical Diseases, 2018)
In brackets after ≈: the same amount, converted by molar mass. Read-outs that look alike come from different tables or passages of the source.

How the values were obtained:
[1] = test system: T. vivax STIB 719 / ILRAD 560; assay: Ex vivo drug sensitivity assay for T. vivax (48 h); assay type: cell-based; conditions: Trypanosoma vivax, STIB719, 48 h
Experimental: Ex vivo drug sensitivity assay for T. vivax (48 h): Compounds were tested ex vivo against the STIB 719 / ILRAD 560 T. vivax (drug sensitive) strain which originated from the Y486 strain, isolated from a naturally infected bovine in 1976 in Zaria, Nigeria. Compounds were assayed in at least three separate, independent experiments and an 11-point dilution curve was used to determine the EC50 values. Bloodstream form trypanosomes were harvested from a highly parasitaemic mouse (via cardiac puncture) and were incubated with test compounds for 45 h at 37°C in a humidified atmosphere containing 5% CO2, supported in HMI-9 medium containing 20% bovine serum. Thereafter, Resazurin dye was added to monitor trypanosome viability as described in the preceding section.

[2] = test system: T. cruzi amastigote (Tulahuen strain expressing β-galactosidase); assay: Intracellular T. cruzi assay in 3T3 cells (beta-galactosidase, 96 h); assay type: cell-based, Trypanosoma cruzi; conditions: read-out: T. cruzi amastigote EC50
Experimental: In a 96-well plate, 5×10^4 3T3 cells in DMEM without phenol red supplemented with 2% FBS were added to each well. Cells were incubated for 2 h to allow for attachment. Compounds were added in triplicates at 50 μM and in serial dilutions 1:2. To each well, 5×10^4 T. cruzi trypomastigotes (Tulahuen strain expressing β-galactosidase) were added and incubated at 37°C, 5% CO2 for 96 h. Following incubation, 50 μL of 500 μM chlorophenol Red-β-D-galactopyranoside (CPRG) in phosphate-buffered saline with 0.5% NP40 was added to each well and incubated at 37°C, 5% CO2 for 4 h. Absorbance was read at 590–595 nm.

[3] = test system: L. major amastigote; assay: L. major intracellular amastigote luciferase assay in RAW 264.7 macrophages; assay type: cell-based, Leishmania major; conditions: intracellular amastigotes in RAW 264.7 macrophages, 96 h
Experimental: Amastigote assays were performed using pLEXSY-hyg2-luciferase L. major transfected promastigotes and the murine RAW 264.7 macrophage cell line (ATCC TIB-71, Manassas, VA). Briefly, luciferase-expressing promastigotes of each Leishmania species were generated by adding a luciferase encoding region to the pLEXSY-hyg2 vector (Jena Biosciences, Germany) as described. One μg of the linearized pLEXSY-hyg2-luciferase vector were electroporated (480 V, 13 Ω, and 500 μF) into 4×10^7 Leishmania promastigotes. Selection for stable promastigote transfectants was carried out using hygromycin B (100 μg/mL). RAW 264.7 macrophages were maintained in growth medium (Dulbecco’s Modified Eagle’s Medium supplemented with heat-inactivated 10% FBS (Life Technologies)). Cells were harvested and resuspended in growth medium at 2.0×10^5 cells/mL, and 1×10^4 cells/well were dispensed (final volume 50 μL) in each well of a 384 well tissue-culture treated white plate using a EVO Freedom liquid handling system (Tecan, Durham, NC). Plates were incubated at 37°C in 5% CO2 for 24 h after which the culture medium was removed from each well using the EVO Freedom liquid handler. Metacyclic phase pLEXSY-hyg2-luciferase-Leishmania promastigotes (MOI = 1:10 L. major) were added to each assay plate well and allowed to infect the RAW 264.7 macrophages. After an overnight incubation, the growth medium was aspirated and each well was washed three times with 40 μL of fresh growth medium to remove non-internalized promastigotes. After the third wash, 69.2 μL of growth medium was added to each well. Compound dilutions (final concentration ranges 0.5–10,000 ng/mL) were generated and dispensed using the liquid handling system. Compound treated plates were incubated at 37°C in 5% CO2 for 96 h. After incubation, 7.5 μL of a luciferin solution (Caliper Life Science, Waltham, MA) diluted to 150 μg/mL was added to each well, and the plates were incubated for 30 min at 37°C in the dark. Data were captured using an Infinite M200 plate reader (Tecan). EC50s were generated for each concentration response test using GraphPad Prism software 6.0.

[4] = test system: T. b. brucei (strain 427); assay: T. b. brucei proliferation assay (PrestoBlue, 48 h); assay type: cell-based, Trypanosoma brucei brucei
Experimental: The assay was performed following a previously reported procedure. Briefly, in a 96-well plate, compounds were added in triplicates at 50 μM and in serial dilutions 1:2 in HMI-9 medium. To each well, 100 μL of 2.5×10^3 T. b. brucei (strain 427, received as a gift from Dr. C. C. Wang at UCSF) in HMI-9 medium was were added and incubated at 37°C, 5% CO2 for 48 h. Following incubation, 20 μL of PrestoBlue were added to each well and incubated for additional 4 h. Fluorescence was read at 530 nm excitation and 590 nm emission.

[5] = LogD7.4; assay type: physicochemical; conditions: pH 7.4
[6] = Aqueous solubility; assay type: physicochemical
[7] = Human liver microsome intrinsic clearance; assay type: in vitro ADME; conditions: for microsomal CLint: liver microsomes
[8] = test system: T. congolense IL3000; assay: In vitro drug sensitivity assay for T. congolense (72 h); assay type: cell-based; conditions: Trypanosoma congolense, IL3000 strain
Experimental: In vitro drug sensitivity assay for T. congolense (72 h): Compounds were tested in vitro for efficacy against the IL3000 T. congolense (drug sensitive) strain which was originally derived from the Trans Mara I strain, isolated from a bovine in 1966 in Kenya. […] Compounds were assayed in at least three separate, independent experiments and an 11-point dilution curve was used to determine the EC50 values. Bloodstream form trypanosomes were supported in HMI-9 medium containing 20% bovine serum and were incubated with test compounds for 69 h at 34°C in a humidified atmosphere containing 5% CO2. Thereafter, 10 μL of Resazurin dye (12.5 mg in 100 mL of phosphate-buffered saline, Sigma-Aldrich, Buchs, Switzerland) was added for an additional 3 h. Plates were read using a fluorescence plate reader (Spectramax, Gemini XS, Bucher Biotec, Basel, Switzerland) using an excitation wavelength of 536 nm and an emission wavelength of 588 nm.

[9] = Rat hepatocyte intrinsic clearance; assay type: in vitro ADME; conditions: for hepatocyte CLint: hepatocytes
[10] = test system: NIH/3T3 cells; assay: Drug toxicity to 3T3 cells (Alamar Blue, 96 h); assay type: cell-based
Experimental: In a 96-well plate, 5×10^4 NIH/3T3 (ATCC CRL-1658) cells (purchased from ATCC) in DMEM without phenol red supplemented with 2% FBS were added to each well. Cells were incubated for 2 h to allow for attachment. Compounds were added in triplicates at 200 μM and in serial dilutions 1:2 and incubated at 37°C, 5% CO2 for 96 h. […] Following incubation, 10 μL of Alamar Blue (ThermoFisher) were added to each well and cells incubated at 37°C, 5% CO2 for 4 h. Absorbance was read at 590–595 nm.

[11] = Human plasma protein binding; assay type: in vitro ADME
[12] = test system: HepG2 cells; assay: Drug toxicity to HepG2 cells (MTT, 48 h); assay type: cell-based, human; conditions: tested concentration ranges based on compound solubility
Experimental: HepG2 cells were cultured in complete Minimal Essential Medium prepared by supplementing MEM with 0.19% sodium bicarbonate, 10% heat inactivated FBS, 2 mM L-glutamine, 0.1 mM MEM non-essential amino, 0.009 mg/mL insulin, 1.76 mg/mL bovine serum albumin, 20 units/mL penicillin–streptomycin, and 0.05 mg/mL gentamycin. HepG2 cells cultured in complete MEM were first washed with 1× Hank’s Balanced Salt Solution (Invitrogen #14175095), trypsinized using a 0.25% trypsin/EDTA solution, assessed for viability using trypan blue, and resuspended at 250,000 cells/mL. Using a Tecan EVO Freedom robot, 38.3 μL of cell suspension were added to each well of clear, cell culture-treated 384-well microtiter plates for a final concentration of 9570 liver cells per well, and plated cells were incubated overnight in 5% CO2 at 37°C. Drug plates were prepared with the Tecan EVO Freedom using sterile 96 well plates containing twelve duplicate 1.6-fold serial dilutions of each test compound suspended in DMSO. 4.25 μL of diluted test compound was then added to the 38.3 μL of media in each well providing a […] final dilution of compound. Compounds were tested from a range of 57 ng/mL to 10,000 ng/mL for all assays. Mefloquine was used as a plate control for all assays with a concentration ranging from 113 ng/mL to 20,000 ng/mL. After a 48 h incubation period, 8 μL of a 1.5 mg/mL solution of MTT diluted in complete MEM media was added to each well. All plates were subsequently incubated in the dark for 1 h at room temperature. After incubation, the media and drugs in each well was removed by shaking the plate over sink, and the plates were left to dry in a fume hood for 15 mins. Next, 30 μL of isopropanol acidified by addition of HCl at a final concentration of 0.36% was added to dissolve the formazan dye crystals created by reduction of MTT. Plates are put on a 3-D rotator for 15–30 mins. Absorbance was determined in all wells using a Tecan iControl 1.6 Infinite plate reader.

[13] = Trypanosoma cruzi, TULAHUEN, NIH3T3, 96 h
[14] = intracellular in 3T3 cells, 96 h

| SMILES | EC50 [1] | EC50 [2, 13] | EC50 ([3]; Leishmania major, RAW264.7) | EC50 ([4]; Trypanosoma brucei) | logD [5] | solubility [6] | microsomal CLint [7] | EC50 [8] | hepatocyte CLint [9] | EC50 [2, 14] | EC50 [3] | 3T3 TC50 [10] | EC50 [4] | LogD7.4 [5] | Human Liver Microsome CLint [7] | Human PPB [11] | Rat Hepatocyte CLint [9] | HepG2 TC50 [12] |
| --- | --- | --- | --- | --- | --- | --- | --- | --- | --- | --- | --- | --- | --- | --- | --- | --- | --- | --- |
| CN1CCN(c2nsnc2-c2ccc3c(Nc4ccc(OCc5cccc(F)c5)c(Cl)c4)ccnc3c2)CC1 [Compound 15] | 0.21 µM | 4.7 µM | 0.96 µM | 0.14 µM | 4.1 | < 0.1 µM | 35 µL/min/mg | 0.39 µM | 35 µL/min/1e6 cells |  |  |  |  |  |  |  |  |  |
| CC(C)(C)OC(=O)Nc1ccc2c(Nc3ccc(OCc4cccc(F)c4)c(Cl)c3)ccnc2c1 [Compound 21] | 0.29 µM | 0.6 µM | 1.1 µM | 0.15 µM | 4.3 | 0.2 µM (≈ 0.0988 µg/mL) | 29 µL/min/mg | 0.83 µM | 48 µL/min/1e6 cells |  |  |  |  |  |  |  |  |  |
| N=C(N)c1ccc(/N=N/Nc2ccc(C(=N)N)cc2)cc1 [Diminazene, diminazene aceturate, reference compound] | 0.1 µM |  |  | 0.009 µM |  |  |  | 0.13 µM |  |  |  |  |  |  |  |  |  |  |
| CC[n+]1c(-c2ccccc2)c2cc(N/N=N/c3cccc(C(=N)N)c3)ccc2c2ccc(N)cc21 [Isometamidium, isometamidium chloride, reference compound] | 0.00012 µM |  |  |  |  |  |  | 0.006 µM |  |  |  |  |  |  |  |  |  |  |
| Cc1ccc(-c2ccc3c(Nc4cnccn4)ccnc3c2)o1 [NEU-2133] |  |  |  |  |  | 4 µM (≈ 1.21 µg/mL) |  |  |  | 0.79 µM | 33 µM | > 50 µM | 5.3 µM | 4 | 190 µL/min/mg | 99% | 290 μL/min/10^6 cells | 50 µM |
| COc1ccc(Nc2ccnc3cc(-c4ccc(C)o4)ccc23)cc1Cl [NEU-2134] |  |  |  |  |  | 0.1 µM (≈ 0.0365 µg/mL) |  |  |  | 1.2 µM | 27 µM | > 100 µM | > 20 µM | 4.8 | > 300 µL/min/mg | > 99% | 193 μL/min/10^6 cells | 42 µM |
| c1cnc(Nc2ccnc3cc(Nc4nccs4)ccc23)cn1 [NEU-2141] |  |  |  |  |  | 4 µM (≈ 1.28 µg/mL) |  |  |  | 22 µM | 24 µM | 24 µM | 4.4 µM | 3.3 | 68 µL/min/mg | 91% | 270 μL/min/10^6 cells | 7.1 µM |
| Cc1nn(C)c(C)c1Nc1ccc2c(Nc3cnccn3)ccnc2c1 [NEU-2142] |  |  |  |  |  | 570 µM (≈ 197 µg/mL) |  |  |  | > 50 µM | 26 µM | > 100 µM | 23 µM | 2 | 13 µL/min/mg | 59% | 32 μL/min/10^6 cells | 39 µM |
| Cn1nccc1Nc1ccc2c(Nc3cnccn3)ccnc2c1 [NEU-2144] |  |  |  |  |  | 100 µM (≈ 31.7 µg/mL) |  |  |  | > 50 µM | 28 µM | > 50 µM | 14 µM | 2.4 | 10 µL/min/mg | 69% | 16 μL/min/10^6 cells | 35 µM |
| c1cnc(Nc2ccnc3cc(Nc4nccnn4)ccc23)cn1 [NEU-2145] |  |  |  |  |  | 3 µM (≈ 0.949 µg/mL) |  |  |  | > 50 µM | 28 µM | > 50 µM | 4.7 µM | 2.1 | 42 µL/min/mg | 75% | > 300 μL/min/10^6 cells | 11 µM |
| Cn1ccnc1Nc1ccc2c(Nc3cnccn3)ccnc2c1 [NEU-2147] |  |  |  |  |  | 160 µM (≈ 50.8 µg/mL) |  |  |  | > 50 µM | 5.5 µM | > 100 µM | 49 µM | 1.7 | 12 µL/min/mg | 57% | 37 μL/min/10^6 cells | 42 µM |
| Cc1cnc(Nc2ccc3c(Nc4cnccn4)ccnc3c2)s1 [NEU-2149] |  |  |  |  |  | 1 µM (≈ 0.334 µg/mL) |  |  |  | > 50 µM | 5.3 µM | > 50 µM | 2.3 µM | 3.7 | 54 µL/min/mg | 96% | > 300 μL/min/10^6 cells | 5 µM |
